Experimental data from patent US6130250A, “Veterinary use of a pleuromutilin derivative” (priority 1996, dated 2000).
≈ marks a conversion by molar mass, not a printed value. Where two headings read alike, the source gives them in different places.

How the values were obtained:
Mycoplasma hyosynoviae = experiment: MIC assay, 7 field isolates of Mycoplasma hyosynoviae; assay type: cell-based; settings: Mycoplasma; 7 field isolates
Method: Tissue samples are obtained from the lungs of pigs from various enzootic pneumonia of pigs (EPP)--affected herds. Samples are shipped on dry ice for culture. Four isolates from lung samples initially isolated for recovery of Mycoplasma hyopneumoniae were reisolated for Mycoplasma hyosynoviae after it had been noted from the lung samples submitted (re-stored at -70° C.), during culture for M. hyopneumoniae, that some samples yielded luxuriant growth of colonies having the typical morphology of Mycoplasma hyosynoviae. Three further isolates were recovered from other lung samples provided. All isolates were serologically identified by disc growth inhibition with specific rabbit antiserum raised against Mycoplasma hyosynoviae. A commerically available solid medium (Mycoplasma Experience Ltd.) is used to isolate M. hyosynoviae from lung tissue. A liquid medium (Mycoplasma Experience Ltd.) containing phenol red and arginine (pH 7.0) is used for the MIC assay.
(§1) Stock solutions of test compound are prepared at 1 mg/ml concentration in deionised water, sterilised by filtration through 0.2μ pore size membrane filters (Sartorius Minisart, N) and stored at -20° C. For use in the MIC tests the stock solutions are diluted in liquid medium to double the final concentrations required. MIC tests are carried out according to the method of Tanner and Wu, Avian Diseases 36 (1992) 714-717. Actively growing challenge cultures are prepared either from 1 ml aliquots of broth cultures stored at -70° C. or from cultures stored on agar at -70° C. The challenge cultures are diluted to give a target titre of 10^3 to 10^5 colour changing units/ml. 0.1 ml aliquots of challenge inocula are mixed with 0.1 ml aliquots of antibiotic dilution in microtitre wells. Each microtitre plate contains uninoculated media at pH 7.6 (end point control) and antibiotic-free inoculated challenge controls. All plates are sealed with adhesive film and incubated aerobically at 36° C. MICs are recorded when the colour change in the challenge control wells matches the pH of the end point control. The MIC is the lowest concentration showing no colour change.

M. hyopneumoniae = experiment: MIC, microtitre broth, ten field isolates and type strain J of M. hyopneumoniae; assay type: cell-based, Mycoplasma hyopneumoniae
Excerpt: Tissue samples are obtained from the lungs of pigs from various enzootic pneumonia of pigs (EPP)-affected herds. Samples are shipped on dry ice for culture. M. hyopneumoniae is recovered from freshly sectioned lung tissue by direct culture onto Mycoplasma Experience agar. This technique allows the distinctive colonies of M. hyopneumoniae to be recognised and readily separated, by cloning from other faster growing mycoplasma species such as Mycoplasma hyorhinis, often present in EPP lung samples. Isolates are subcultured and identified by disc growth inhibition using specific rabbit antiserum raised to M. hyopneumoniae NCTC 10110.
Cultures for antibiotic challenge are prepared in Mycoplasma Experience broth, incubated aerobically at 36° C.
A commercially available solid medium (Mycoplasma Experience Ltd.) is used to isolate M. hyopneumoniae from lung tissue. A liquid medium (Mycoplasma Experience Ltd.) containing phenol red and glucose (pH 7.6) is used for the MIC assays.
as §1, with “Tanner &” for “Tanner and”, “pH 6.8 (M. hyopneumoniae)” for “pH 7.6”, “wells match” for “wells matches”

[1] = hen; cited from earlier work
[2] = pig; cited from earlier work
coccidia = settings: fowl; cited from earlier work
[3] = Mesomycoplasma hyopneumoniae, field strains (n = 10)

SMILES | MIC (Mycoplasma hyosynoviae) [µg/mL] | MIC (M. hyopneumoniae; Mesomycoplasma hyopneumoniae, NCTC10110, Type Strain J (NCTC 10110), read-out: MIC) [µg/mL] | MIC50 (M. hyopneumoniae; [3]) [µg/mL] | MIC90 (M. hyopneumoniae; [3]) [µg/mL] | MIC (M. hyopneumoniae; Mesomycoplasma hyopneumoniae, field strains (n = 10), read-out: MIC range) [µg/mL] | susceptibility of field isolates (M. hyopneumoniae; field isolates) | dosage showing growth-promoting activity [1] | dosage showing growth-promoting activity [2] | dosage showing activity against coccidia (coccidia)
CCN1CCN(c2cc3c(cc2F)c(=O)c(C(=O)O)cn3C2CC2)CC1 [enrofloxacin] | 0.025 to 0.25 (≈ 0.0696 to 0.696 µM) | 0.025 (≈ 0.0696 µM) | 0.005 (≈ 0.0139 µM) | 0.01 (≈ 0.0278 µM) | 0.0025 to 0.025 (≈ 0.00696 to 0.0696 µM) | very good sensitivity | – | – | –
C=C[C@]1(C)C[C@@H](OC(=O)CSC(C)(C)CNC(=O)[C@H](N)C(C)C)[C@]2(C)[C@H](C)CC[C@]3(CCC(=O)[C@H]32)[C@@H](C)[C@@H]1O [compound of formula I, 14-O-[1-[(R)-2-amino-3-methylbutyrylamino]-2-methylpropan-2-ylthioacetyl]mutilin] | – | – | – | – | – | – | 10-50 mg/kg of feed | 10-50 mg/kg of feed | 20-150 mg/kg of feed
